The subject of one series is EL4 Lymphoma. Nature of the series: EL4 Lymphoma in mice (Test 6). Type of series: in vivo, mice (BDF1). To be noted: 10.0 mg/kg i.p., days 1, 5 and 9; median survival time. From the text:
EL4 Lymphoma (1×10^6 cells), maintained i.p. by serial passage in female C57BL/6 mice, was implanted i.p. to female BDF1 mice on day 0, and the test compounds or vehicle were given i.p. to the mice once a day on days 1, 5 and 9.
Ten mice were used for each test group and twenty mice were used for each vehicle-treated control group.
Drug efficacy against the ascitic tumors is expressed as percentage of the median survival time of the test group to that of the control group. [formula]

The subject of series [1] is Escherichia coli NIHJ JC-2. The experiment in a line: Antimicrobial activity, serial broth dilution (Test 2), Escherichia coli. To be noted: NIHJJC2, overnight incubation at 37° C. In kind it is cell-based. On the procedure:
Antimicrobial activity of the FR-900482 substance against some bacteria was determined by a serial broth dilution method in bouillon media for bacteria. Minimum inhibitory concentrations (MIC) were expressed in terms of μg/ml after overnight incubation at 37° C.
On the technique in general: Broth dilution looks for growth in wells or tubes with falling amounts of substance.

Series [2] concerns Human LC-6-JCK lung carcinoma. Nature of the series: Human LC-6-JCK lung carcinoma in nude mice (Test 10). Type of series: in vivo, human (in BALB/c nu/nu mice). To be noted: 10.0 mg/kg i.v., days 12, 16 and 20; evaluation day 28. Here is the method:
Human LC-6-JCK lung or SC-6-JCK stomach (each fragment, 2×2×2 mm), maintained s.c. by serial passage in male BALB/c nu/nu mice, was implanted s.c. to male BALB/c nu/nu mice on day 0, and the test compounds were given i.v. to the mice once a day on days 12, 16 and 20.
Tumor weight was calculated as follows: (Tumor length and width were measured by caliper.)
Tumor weight (mg)=1/2×a×b^2, where a represents length and b represents width (mm).
Tumor weights (initial) and (last) were calculated on the first injection day (just before dosing) and on day 28 (the last evaluation day), respectively.
Five mice were used for each test group and four or five mice were used for each vehicle-treated control.
Drug efficacy was expressed as percentage of mean tumor weight of the test group to that of the control group. [formula]

Series [3] is described as follows: Mixture ratios of the two components under various pH values. In kind it is physicochemical. To be noted: pH 1.0, 0.1 N hydrochloric acid. On the procedure:
The FR-900482 substance was dissolved in various buffer solutions so as to make its concentration to 10 mg/ml. After allowing to stand for 2 hours, 4 μl of each of these solutions was subjected to silica gel thin layer chromatography using a mixture of chloroform and methanol (4:1, v/v) as a developing solvent. After developing, the mixture ratios of the two components were calculated by a chromatoscanner at 254 nm, the results of which are shown in the following.

Values after ≈ are worked out from the molar mass of the structure shown.

Turning to `NC(=O)OCC1c2c(O)cc(C=O)cc2N2CC3NC3C1(O)O2` (stereo not shown) [FR-900482 substance, 4-Formyl-6,9-dihydroxy-14-oxa-1,11-diazatetracyclo[7.4.1.0^2,7.0^10,12]tetradeca-2,4,6-trien-8-ylmethyl carbamate], the T/C (in general, the ratio of treated to control) with EL4 Lymphoma is 169%. In addition, the MIC (commonly the least concentration at which growth counts as inhibited) in series [1] came to 50 µg/mL (≈ 156 µM). Besides, the “1-T"/C"” value in series [2] amounted to 100%. The “Ratios of the two components” value in series [3] is on record as “single component”.

(Values after US4861774A, “Method of treating tumors using tetracyclo compounds” (priority 1984, dated 1989).)
